From patent publication US20190142738A1, “TRANSDERMAL FORMULATIONS FOR DELIVERY OF CELECOXIB AND ITS USE IN THE TREATMENT OF CELECOXIB-RESPONSIVE DISEASES AND CONDITIONS” (DELIVRA INC., priority 2016, published 2019)
Where two headings read alike, the source gives them in different places.

Columns and labels:
Type in all cases: in vivo
[1] = system: sodium urate induced synovitis model in Beagle dogs; test: Caliper measurement of patella/patellar tendon (knee cap) width, percent baseline measure of inflammation, sodium urate induced synovitis model
Procedure: Study Design: The study was a randomized, blinded, preclinical study using a controlled, parallel, matched-group design. Thirty-two subjects meeting the inclusion criteria were enrolled in the trial and allocated to 4 balanced groups; therefore one group received 2 treatments separated by a minimum of 14 days. Following induction of synovitis by sodium urate injections, effectiveness of transdermal formulations were evaluated using a pain questionnaire assessment and joint measurements at various time points. [table] On days 0, 2, 7 and 22, subjects who were schedules for synovitis induction were treated according to their assigned treatment condition. Test article administration occurred 30 minutes following synovitis induction, i.e. sodium urate injection. Transdermal treatment doses were measured in milligrams using an analytical scale and were then applied directly to the induce stifle. Transdermal treatments were rubbed into the dog's skin for a minimum of 1 minute. […] If IV administration of the propofol was not possible due to inaccessibility of the vein, the subjects were masked down using the isoflurane-oxygen mixture and the event was recorded on the anesthesia record. […] Each treatment group had the same number of dogs induced in the left […]) Caliper measurements: Within thirty minutes of synovitis induction and 4.5, 8.5, 24.5 and 30.5 hours following induction (±15 minutes), the width of the patella and the patellar tendon were measured in millimeters using […] 150 mm plastic gauge calipers which measured in increments of 1 mm. […] The cumulative pain scored and stifle measurements were analyzed using a repeated-measures analysis of variance (ANOVA) with the treatment group (7 factors( ) as between-subject measure and time-point (5 factors for pain and 4 factors for the inflammation measure) as a within-subject measure. Post-hoc Fisher's test was used to examine differences as appropriate. The Statistica 11 (Statsoft, Tulsa, Okla.) statistical software package was used with significance set to […].

[2] = Oral and transdermal celecoxib concentrations in canine sera and synovial fluid; conditions: dogs; for concentration at 7 days / concentration at 60 min: dog
Description: A Latin Square design was used employing six aged dogs with radiographic evidence of bilateral shoulder osteoarthritis. The treatment cycle consisted of six days twice daily followed by a period of seven days devoid of treatment. Blood and synovial fluid samples (from both stifles and shoulders) were collected on the last (sixth) day of drug application and on the last (seventh) day of the washout period.
Test article: 3% celecoxib in exemplary transdermal base formulation 4; ˜0.5 g gel per shoulder (2) and stifle joint (2) twice daily (i.e. 60 mg celecoxib total twice daily).
Control article: Exemplary transdermal base formulation 5; ˜1 g gel per shoulder joint twice daily.
Positive control: 30 mg celecoxib in capsule PO twice daily.
Serum and Synovial Fluid Collection:
Whole blood and synovial fluid samples were collected from the dogs 60 mins post treatment on the […], and additional samples were collected after a 7 day washout. Baseline synovial fluid was collected from untreated canine subjects. Synovial fluid was collected under sedation (medetomidine, 0.01 mg/kg) and butorphenol (0.1 mg/kg, IV). The fluid was collected by arthrocentesis into the joint following surgical preparation of the area. Synovial fluid was collected from the stifle or shoulder joints.
Analytical Method Development and Quantification:
The method for quantification of celecoxib in serum, plasma and synovial fluid was completed by the National Research Council of Canada (NRC). The results were categorized and summarized for average and deviations for each treatment group and time period.
The objective of this study was to determine if the transdermal formulations of the application were capable of delivering celecoxib either into the systemic circulation and joint synovial fluid and compare transdermal versus oral routes of administration. A canine model was used over two time periods. The first time period consisting of a twice daily drug administration regimen for six days to assess concentrations predictive of chronic use. The second time period followed immediately after, wherein all animals were withdrawn of drug administration and tested after seven days to determine if celecoxib was completely metabolized.

[3] = system: sodium urate induced synovitis model in Beagle dogs; test: Pain questionnaire assessment (cumulative pain score), sodium urate induced synovitis model
Procedure: Study Design: The study was a randomized, blinded, preclinical study using a controlled, parallel, matched-group design. Thirty-two subjects meeting the inclusion criteria were enrolled in the trial and allocated to 4 balanced groups; therefore one group received 2 treatments separated by a minimum of 14 days. Following induction of synovitis by sodium urate injections, effectiveness of transdermal formulations were evaluated using a pain questionnaire assessment and joint measurements at various time points. [table] On days 0, 2, 7 and 22, subjects who were schedules for synovitis induction were treated according to their assigned treatment condition. Test article administration occurred 30 minutes following synovitis induction, i.e. sodium urate injection. Transdermal treatment doses were measured in milligrams using an analytical scale and were then applied directly to the induce stifle. […] If IV administration of the propofol was not possible due to inaccessibility of the vein, the subjects were masked down using the isoflurane-oxygen mixture and the event was recorded on the anesthesia record. […] Specifically, the ability for each dog to walk, trot, gallop, rear, jump over a low obstacle, climb and descend stairs, jump down from a perch and general activity is evaluated in parallel to subjective evaluation of pain observed during each behavior. […]

[4] = Oral, 30 mg capsule PO twice daily (60 mg/day), Chronic administration (6 days)
[5] = Transdermal (formulation 4), Washout (7 days)
[6] = Transdermal, 3% celecoxib in formulation 4, 120 mg/day, Chronic administration (6 days)

Structure (SMILES): Cc1ccc(-c2cc(C(F)(F)F)nn2-c2ccc(S(N)(=O)=O)cc2)cc1 [celecoxib]
- inflammation compared to Voltaren ([1]; 8 hours): significantly reduced inflammation
- percent baseline measure of inflammation (knee cap measurement) in comparison to no treatment ([1]; 24 hours): significantly reduced
- effects on inflammation compared to negative control ([1]; summary statement, no time point stated): no effects
- concentration at 7 days ([2]; serum, 30 mg, Oral, Washout (7 days), read-out: Serum drug concentration of celecoxib): 0 ng/mL
- concentration at 7 days ([2]; serum, topical, 60 mg, Transdermal (formulation 4), Washout (7 days), read-out: Serum drug concentration of celecoxib): 4 ng/mL
- concentration at 60 min ([2]; serum, topical, 60 mg, Transdermal, 3% celecoxib in formulation 4, 120 mg/day, Chronic administration (6 days), read-out: Serum drug concentration of celecoxib): 221 ng/mL
- concentration at 60 min ([2]; serum, Oral, 30 mg capsule PO twice daily (60 mg/day), Chronic administration (6 days), read-out: Serum drug concentration of celecoxib): 312 ng/mL
- concentration at 7 days ([2]; synovial fluid, 30 mg, Oral, Washout (7 days), read-out: Synovial fluid drug concentration of celecoxib): 1 ng/mL
- concentration at 7 days ([2]; synovial fluid, topical, 60 mg, Transdermal (formulation 4), Washout (7 days), read-out: Synovial fluid drug concentration of celecoxib): 17 ng/mL
- concentration at 60 min ([2]; synovial fluid, topical, 60 mg, Transdermal, 3% celecoxib in formulation 4, 120 mg/day, Chronic administration (6 days), read-out: Synovial fluid drug concentration of celecoxib): 203 ng/mL
- concentration at 60 min ([2]; synovial fluid, Oral, 30 mg capsule PO twice daily (60 mg/day), Chronic administration (6 days), read-out: Synovial fluid drug concentration of celecoxib): 76 ng/mL
- Serum drug concentration of celecoxib [2, 4]: 312 (±214) ng/mL
- Synovial fluid drug concentration of celecoxib [2, 4]: 76 (±57) ng/mL
- Synovial fluid drug concentration of celecoxib ([2]; Oral, Washout (7 days)): 1 (±1) ng/mL
- Serum drug concentration of celecoxib [2, 5]: 4 (±6) ng/mL
- Synovial fluid drug concentration of celecoxib [2, 5]: 17 (±35) ng/mL
- Serum drug concentration of celecoxib [2, 6]: 221 (±227) ng/mL
- Synovial fluid drug concentration of celecoxib [2, 6]: 203 (±165) ng/mL
- amount of drug the transdermal route requires to achieve the same circulating concentration as oral ([2]; chronic treatment, transdermal versus oral): twofold
- reduction of circulating drug concentrations by one week washout ([2]; serum, oral or transdermal): > 95%
- reduction of drug concentration by one week washout ([2]; synovial fluid, oral or transdermal): > 90%
- cumulative pain score in comparison to no treatment ([3]; 4 hours after treatment): significantly reduced
- cumulative pain score in comparison to no treatment ([3]; 8 hours after treatment): significantly reduced
